In patent US20100048722A1, “FORMATION OF ACCUMBENS GluR2-LACKING AMPA RECEPTORS MEDIATES […] COCAINE CRAVING” (ROSALIND FRANKLIN UNIVERSITY OF MEDICINE AND SCIENCE, priority 2008, published 2010):
Where two headings read alike, the source gives them in different places.

Test system: GluR2-lacking AMPA receptors
Conditions: injection into accumbens 15 min before extinction test
Procedure: Male rats were trained to nose-poke (biochemical and electrophysiology experiments) or lever-press (Naspm accumbens injections experiment) for 6-h/day for 10-12 days; each cocaine infusion was paired with a tone-light or light cue. After self-administration training, the rats were tested for cue-induced cocaine-seeking after 1 or 45 withdrawal days. During testing, lever or nose-poke responding led to contingent presentations of the cue previously paired with cocaine infusions, but not cocaine. Responding on the previously active lever or hole was the operational measure of cocaine-seeking.
The rats were anesthetized using isoflurane gas (Henry Schein, Melville, N.Y.) and flunixin meglumine was administered before surgery (2 mg/kg, i.p.) as an analgesic. A silastic catheter was inserted into the right auricle through the external jugular vein, passed under the skin and fixed in the mid-scapular region. The rats recovered from surgery for at least seven days prior to beginning self-administration training sessions. During this time, catheters were flushed every 24-48 h with sterile 0.9% saline. […]

Cl.Cl.Cl.NCCCNCCCCNCCCNC(=O)Cc1cccc2ccccc12 [Naspm, 1-Naphthylacetyl spermine trihydrochloride]
cue-induced cocaine-seeking (responses on previously active lever) (withdrawal day 1): did not alter | cue-induced cocaine-seeking (responses on previously active lever) (withdrawal day 45): significantly reduced
